Source: patent publication US20210122724A1, “TETRACARBOXYLIC DIANHYDRIDE, CARBONYL COMPOUND, POLYIMIDE PRECURSOR RESIN, AND POLYIMIDE” (ENEOS Corporation, priority 2018, published 2021)

Test: Solubility of tetracarboxylic dianhydride in organic solvent (visual, 50 mg sample)
Assay type: physicochemical
Protocol: As the samples, the tetracarboxylic dianhydride (exo/exo type BzDA) obtained in Example 2 and the tetracarboxylic dianhydride (endo/endo type BzDA) obtained in Comparative Example 2 were separately used to confirm the solubility of each tetracarboxylic dianhydride in an organic solvent as follows. Specifically, after 50 mg of the sample was added to a screw tube, an organic solvent was added little by little into the screw tube, and the amount of the sample dissolved was visually confirmed. Note that, as the organic solvents, N,N′-dimethylacetamide and N-methyl-2-pyrrolidone were used to confirm the solubility in the solvents.

Row | SMILES | concentration of solution that can be prepared (solubility) (solvent N,N′-dimethylacetamide) | concentration of solution that can be prepared (solubility) (solvent N-methyl-2-pyrrolidone)
1 | O=C1OC(=O)C2C3CC(CC3c3ccc(C4CC5CC4C4C(=O)OC(=O)C54)cc3)C12 (stereo not drawn) [exo/exo type BzDA, exo,exo-5,5′-(1,4-phenylene)bis(bicyclo[2.2.1]heptane-2,3-exo-dicarboxylic anhydride)] | ≥ 5 % by mass | ≥ 5 % by mass
2 | O=C1OC(=O)C2C3CC(CC3c3ccc(C4CC5CC4C4C(=O)OC(=O)C54)cc3)C12 (stereo not drawn) [endo/endo type BzDA] | < 1 % by mass | < 3.5 % by mass
